The target of this test is T1, cloned human CCR8 receptor stably expressed in L1.2 cells (Homo sapiens, UniProt P51685).
T1 construct: expressed in transfected cells
The test is described as follows: whole cell binding screen: inhibition of biotinylated human I309 binding to CCR8 (FMAT 8100 HTS). Conditions: biotinylated human I-309, 10 point concentration response starting at 10 μM. From the text: This whole cell binding screen evaluates the ability of compounds to inhibit biotinlyated human I309 binding to the cloned human CCR8 receptor stably expressed in L1.2 cells. Human CCR8 gene was amplified by PCR using PFU polymerase under standard conditions from human genomic DNA purchased from Stratagene. The PCR primers used were:
The 5′ and 3′ primers contained flanking enzyme sites (Bam Hi and Not 1,respectively), which were used to subclone the gene into pcDNA3.1. […] The CCR8 vector was then transfected into L1.2 cells (murine pre-B cells) by electroporation.
Compounds were screened using the FMAT™ 8100 HTS System (purchased from Applied Biosystems).
A suspension was prepared of L1.2/hCCR8 cells at 4.0×10^5 cells/mL in a binding buffer (Buffer consisting of Hanks Balanced Salt Solution (without phenol red), 10 mM HEPES, 0.1% Fatty Acid Free BSA, 0.02% Sodium Azide).
Dilution series of 10 mM stock concentrations of the test compounds were prepared in DMSO and further diluted into binding buffer defined above) to three times the final assay concentration.
10 point concentration response curve is constructed for each compound, starting at 10 μM (final assay concentration in Binding Buffer). […] The components were mixed in wells by covering the plate with aluminum foil and rotating for 0.5 hours. […] Average fluorescence reported for each concentration was normalized to percent inhibition based on negative (no inhibitor) and positive (100 nM excess unlabeled I309 (R and D Systems)) controls.

The mark [1] stands for this setting: Ki of compounds to inhibit I-309 binding to CCR8, L1.2/hCCR8 cells.
Where [2] appears, read: L1.2/hCCR8 cells, read-out: Ki of compounds to inhibit I-309 binding to CCR8.

Where two headings read alike, the source gives them in different places.

T1 sequence (P51685 whole entry): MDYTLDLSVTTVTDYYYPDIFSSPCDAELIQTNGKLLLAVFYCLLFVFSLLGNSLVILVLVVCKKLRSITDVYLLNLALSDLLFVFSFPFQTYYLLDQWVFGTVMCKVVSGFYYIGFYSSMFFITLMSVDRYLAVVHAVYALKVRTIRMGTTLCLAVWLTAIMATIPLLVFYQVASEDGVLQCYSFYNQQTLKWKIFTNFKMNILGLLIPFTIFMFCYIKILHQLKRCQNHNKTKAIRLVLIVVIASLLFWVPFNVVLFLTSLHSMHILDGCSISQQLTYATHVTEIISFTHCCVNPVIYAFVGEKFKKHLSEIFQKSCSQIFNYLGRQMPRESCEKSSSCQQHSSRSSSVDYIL

`CCC(=O)N1CCC(NS(=O)(=O)c2ccc(NC(=O)c3ccccc3C)c3ccccc23)CC1` [Compound C-50, 2-Methyl-N-[4-(1-propionyl-piperidin-4-ylsulfamoyl)-naphthalen-1-yl]-benzamide] registered a Ki under setting [1] below 500 nM. As to `CC(C)(C)OC(=O)N1CCC(NS(=O)(=O)c2ccc(NC(=O)c3ccccc3F)c3ccccc23)CC1` [Compound B-15, 4-[4-(2-Fluoro-benzoylamino)-naphthalene-1-sulfonylamino]-piperidine-1-carboxylic acid tert-butyl ester], the Ki under setting [2] is below 500 nM. Turning to `O=C(NC1CCOCC1)c1ccc(S(=O)(=O)NC2CCNCC2)c2ccccc12` [Compound F-18, 4-(Piperidin-4-ylsulfamoyl)-naphthalene-1-carboxylic acid (tetrahydro-pyran-4-yl)-amide], the Ki under setting [2] is below 30000 nM. On the same count and under the same terms, the figure for `CCOC(=O)C1CN(C(=O)CN(C)C)CCC1NS(=O)(=O)c1ccc(NC(=O)c2ccccc2C)c2ccccc12` (stereo not drawn) [Compound C-83, 1-(2-Dimethylainino-acetyl)-4-[4-(2-methyl-benzoylamino)-naphthalene-1-sulfonylamino]-piperidine-3-carboxylic acid ethyl ester] is below 30000 nM. Still for that read-out and setting: the figure for `Cc1ccccc1C(=O)Nc1ccc(S(=O)(=O)N[C@H]2CCNC[C@@H]2CC(C)C)c2ccccc12` [Compound J-56] is below 5000 nM; for `Cc1ccccc1C(=O)Nc1ccc(S(=O)(=O)N[C@H]2CCN(Cc3ccccc3)C[C@H]2C)c2c1CCCC2` (racemic) [Compound E-13, (±)-cis-N-[4-(1-Benzyl-3-methyl-piperidin-4-ylsulfamoyl)-5,6,7,8-tetrahydro-naphthalen-1-yl]-2-methyl-benzamide] it is below 1000 nM.

In the case of `Cc1ccccc1C(=O)Nc1ccc(S(=O)(=O)N[C@@H]2CCN(Cc3ccccc3)C[C@H]2C)c2ccccc12` (racemic) [Compound A-23, (±)-trans-N-[4-(1-Benzyl-3-methyl-piperidin-4-ylsulfamoyl)-naphthalen-1-yl]-2-methyl-benzamide], the Ki under setting [2] is below 500 nM. The same measure, in the same setting: the same measure for `O=C(NCc1ccc(S(=O)(=O)NC2CCCCC2)c2ccccc12)c1ccco1` [Compound G-6, Furan-2-carboxylic acid (4-cyclohexylsulfamoyl-naphthalen-1-ylmethyl)-amide]: below 1000 nM. The same measure, in the same setting: the figure for `CCCC(=O)N1CCC(NS(=O)(=O)c2ccc(NC(=O)c3ccc(Cl)cc3Cl)c3ccccc23)CC1` [Compound C-111, N-[4-(1-Butyryl-piperidin-4-ylsulfamoyl)-naphthalen-1-yl]-2,4-dichloro-benzamide] is below 500 nM; for `CCNC(=O)N1CCC(NS(=O)(=O)c2ccc(NC(=O)c3ccccc3C)c3c2CCCC3)CC1` [Compound E-19, 4-[4-(2-Methyl-benzoylamino)-5,6,7,8-tetrahydro-naphthalene-1-sulfonylamino]-piperidine-1-carboxylic acid ethylamide] it is below 500 nM; for `CCCC(=O)N1CCCC(NS(=O)(=O)c2ccc(NC(=O)c3ccccc3C)c3ccccc23)C1` (racemic) [Compound C-114, (±)-N-[4-(I-Butyryl-piperidin-3-ylsulfamoyl)-naphthalen-1-yl]-2-methyl-benzamide] it is below 500 nM. The same measure, in the same setting: the same measure for `Cc1ccccc1C(=O)Nc1ccc(S(=O)(=O)N[C@H]2CCNC[C@@H]2C)c2ccccc12` (racemic) [Compound C-14, (±)-trans-2-MethylN-[4-(3-methyl-piperidin-4-ylsulfamoyl)-naphthalen-1-yl]-benzamide]: below 500 nM. `CCOC(=O)N1CCC(NS(=O)(=O)c2ccc(C(=O)NC3CCCCC3)c3ccccc23)CC1` [Compound F-3, 4-(4-Cyclohexylcarbamoyl-naphthalene-1-sulfonylamino)-piperidine-1-carboxylic acid ethyl ester] had a Ki under setting [1] below 500 nM. Consider `Cc1ccccc1NC(=O)c1cccc2c(S(=O)(=O)NC3CCN(C(=O)N(C)C)CC3)cccc12` [Compound H-32, 4-(5-o-Tolylcarbamoyl-naphthalene-1-sulfonylamino)-piperidine-1-carboxylic acid dimethylamide], for which the inhibitory constant (Ki) under setting [2] is below 500 nM. On the same count and under the same terms, the same measure for `CCCC(=O)N1CC[C@H](NS(=O)(=O)c2ccc(NC(=O)c3ccccc3C)c3ccccc23)[C@H](C)C1` (racemic) [Compound C-139, (±)-cis-N-[4-(1-Butryl-3-methyl-piperidin-4-ylsuffamoyl)-naphthalen-1-yl]-2-methyl-benzamide]: below 500 nM. Turning to `COc1ccc(NS(=O)(=O)c2ccc(NC(=S)Nc3ccccc3)c3ccccc23)cc1` [Compound B-9, 4-(3-Phenyl-thioureido)-naphthalene-1-sulfonic acid (4-methoxy-phenyl)-amide], the Ki under setting [2] was below 30000 nM. Under setting [1], `CCOC(=O)N1CCC(NS(=O)(=O)c2ccc(C(=O)Nc3ccccc3C)c3ccccc23)CC1` [Compound F-11, 4-(4-o-Tolylcarbamoyl-naphthalene-1-sulfonylamino)-piperidine-1-carboxylic acid ethyl ester] displayed a Ki below 500 nM. With `O=C(Nc1ccc(S(=O)(=O)NC2CCN(C(=O)N3CCOCC3)CC2)c2ccccc12)c1ccccc1` [Compound C-4, N-{4-[1-(Morpholine-4-carbonyl)-piperidin-4-ylsulfamoyl]-naphthalen-1-yl}-benzamide], the Ki under setting [2] was below 500 nM. On the same count and under the same terms, the same measure for `CCCC(=O)N1CCC(NS(=O)(=O)c2ccc(C(=O)Nc3ccccc3Cl)c3ccccc23)CC1` [Compound F-22, 4-(1-Butyryl-piperidin-4-ylsulfamoyl)-naphthalene-1-carboxylic acid (2-chloro-phenyl)-amide]: below 500 nM; for `CCCC(=O)N1CC[C@H](NS(=O)(=O)c2ccc(NC(=O)c3ncccc3C)c3ccccc23)[C@H](C)C1` (racemic) [Compound D-4, (±)-(cis)-3-Methyl-pyridine-2-carboxylic acid [4-(1-butyryl-3-methyl-piperidin-4-ylsulfamoyl)-naphthalen-1-yl]-amide]: below 500 nM.

With `CCOC(=O)N1CCC(NS(=O)(=O)c2ccc(NC(=O)c3ccccc3C)c3ccccc23)C(C)(C)C1` (racemic) [Compound C-20, (±)-3,3-Dimethyl-4-[4-(2-methyl-benzoylamino)-naphthalene-1-sulfonylamino]-piperidine-1-carboxylic acid ethyl ester], the Ki under setting [2] is below 500 nM.

`Cc1ccccc1C(=O)Nc1ccc(S(=O)(=O)NC2CCN(C(=O)CN(C)C)CC2)c2ccccc12` [Compound C-55, N-{4-[1-(2-Dimethylamino-acetl)-piperidin-4-ylsulfamoyl]-naphthalen-1-yl}-2-methyl-benzamide]: under setting [2], the inhibition constant Ki was below 500 nM. Still for that read-out and setting: the figure for `Cc1ccccc1C(=O)Nc1ccc(S(=O)(=O)N[C@H]2CCN(C(=O)C(C)(C)N)C[C@H]2C)c2ccccc12` [Compound J-8, (3R, 4S)-N-{4-[1-(2-Amino-2-methyl-propionyl)-3-methyl-piperidin-4-ylsuffamoyl]-naphthalen-1-yl}-2-methyl-benzamide] is below 500 nM; for `CCCC(=O)N1CCC(NS(=O)(=O)c2cccc3c(C(=O)NC4CCCC(C)C4C)cccc23)CC1` (racemic) [Compound H-31, (±)-5-(1-Butyryl-piperidin-4-ylsulfamoyl)-naphthalene-1-carboxylic acid (2,3-dimethyl-cyclohexyl)-amide] it is below 500 nM.

Usually Ki stands for a dissociation constant, usually derived from enzyme kinetics or from competition with a known ligand.

For the origin of these results see patent US7491827B2, “Aryl sulfonamides useful as inhibitors of chemokine receptor activity” (Millennium Pharmaceuticals, Inc., priority 2003, dated 2009).
